From US20240025893A1, “PYRIMIDINE-AND NITROGEN-CONTAINING BICYCLIC COMPOUND” (Asahi Kasei Pharma Corporation, priority 2020, published 2024)

Legend:
[1] = system: LPS-stimulated TNFα production in THP-1 cells; assay: LPS-stimulated TNFα production inhibition test using human acute monocytic leukemia cell strain THP-1; format: cell-based; conditions: Homo sapiens, LPS 2.5 ng/mL, average values
Description: By the THP-1 assay, influence of a test compound on the TNFα production induced by LPS stimulation can be evaluated. The THP-1 cells (ATCC, Cat. TIB-202) were inoculated on a 96-well plate at a density of 1×10^5 cells/160 μL/well, a test compound was added in a volume of 20 μL, and the plate was incubated at 37° C. for 1 hour in a 5% CO2 incubator. Then, LPS in a volume of 20 μL (final concentration 2.5 ng/mL, Sigma, Cat. L2630) was added, and the plate was further incubated for 4 hours. After the incubation, the plate was centrifuged, and 100 μL of the supernatant was taken from each well, and used for evaluation of the amount of TNFα using HTRF (Cisbio, Cat. 62TNFPEB). In the measurement of the amount of TNFα, the supernatant was diluted twice with the medium, and then added to wells of a 384-well plate in a volume of 10 μL, then anti-TNFα-cryptate (5 μL), and anti-TNFα-XL665 (5 μL) were added, and the plate was left standing overnight. The fluorescence intensity ratio for the wavelengths of 620 and 665 nm (620 nm/665 nm) was measured with a microplate reader, and the amount of TNFα in the supernatant was calculated by using a calibration curve. The TNFα production suppression ratio observed with no addition of LPS was defined to be 100%, the TNFα production suppression ratio observed with no addition of the test compound was defined to be 0%, and IC50 of the test compound was calculated by using the 4-parameter logistic model of the data analysis software XLfit (ID Business Solutions Ltd.).

[2] = biological target: human IRAK-4 (Homo sapiens (Human), UniProt Q9NWZ3); assay: Measurement of human IRAK-4 inhibitory activity (TR-FRET, peptide substrate phosphorylation, 10 μM ATP); format: biochemical; conditions: 1 nM IRAK-4, 10 μM ATP, 23° C., 30 minutes; average values
Chain of human IRAK-4 (Q9NWZ3 whole entry): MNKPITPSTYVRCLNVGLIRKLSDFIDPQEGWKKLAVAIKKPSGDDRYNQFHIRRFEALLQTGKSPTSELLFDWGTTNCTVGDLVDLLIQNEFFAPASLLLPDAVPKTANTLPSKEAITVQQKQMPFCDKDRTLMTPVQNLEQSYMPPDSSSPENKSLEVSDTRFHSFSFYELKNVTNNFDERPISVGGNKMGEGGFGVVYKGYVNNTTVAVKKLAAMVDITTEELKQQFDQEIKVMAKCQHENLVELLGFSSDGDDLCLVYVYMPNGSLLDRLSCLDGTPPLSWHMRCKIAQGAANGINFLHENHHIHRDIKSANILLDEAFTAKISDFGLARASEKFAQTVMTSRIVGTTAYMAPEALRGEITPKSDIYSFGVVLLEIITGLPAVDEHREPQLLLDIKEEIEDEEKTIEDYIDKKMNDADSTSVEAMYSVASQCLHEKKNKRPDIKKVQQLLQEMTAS
Description: For the measurement of the activity of the human IRAK-4 (Invitrogen, Cat. PV3362), phosphorylation of the IRAK-4 peptide substrate (biotin-KKKKRFSFKKSFKC) by the enzyme in the presence of 10 μM ATP (Sigma-Aldrich, Cat. A7699) was measured by the TR-FRET method. The enzymatic reaction was performed in a reaction buffer containing 50 mM HEPES (pH 7.2), 1 mM DTT, 0.1 mM Na3VO4, 5 mM MgCl2, 1 mM MnCl2, and 0.1% bovine serum albumin. For the measurement of the IRAK-4 inhibitory activity, a test compound was added to the reaction buffer containing 1 nM IRAK-4, 0.5 μM peptide substrate, and 10 μM ATP, and the mixture was incubated at 23° C. for 30 minutes. Then, a detection solution containing an antibody labeled with europium cryptate (0.3 μg/mL, the antibody was prepared by using the IRAK-4 peptide substrate as the antigen), streptavidin-XL665 (2 μg/mL, CisBio, Cat. 610SAXLB), 50 mM HEPES (pH 7.2), 0.1% BSA, 120 mM KF, and 66.7 mM EDTA (all the concentrations of the reagents are final concentrations) was added to terminate the reaction, and then the mixture was further incubated at 23° C. for 60 minutes. Fluorescence intensity was measured at wavelengths of 665 nm and 620 nm with a microplate reader, and the enzymatic activity was calculated as the ratio of fluorescence intensities at 665 nm and 620 nm (665 nm/620 nm).

| Structure (SMILES) | IC50 ([1]; THP-1, 4 h) [nM] | IC50 [2] [nM] | IC50 ([1]; 4 hours) [nM] |
| --- | --- | --- | --- |
| C[C@@H]1CN(C2CC(C(=O)Nc3nc4ccc(-c5cnc(CO[C@H]6CCC[C@@H]6O)nc5)cc4s3)C2)CCO1 (stereo partly drawn) [b-02-08] | 113 | 2.76 | – |
| O=C(Nc1nc2ccc(-c3cnc(CO[C@H]4CCC[C@@H]4O)nc3)cc2s1)C1CC(N2CC3CC(C2)O3)C1 (stereo partly drawn) [b-02-09] | – | 2.42 | 142 |
| O=C(Nc1nc2ccc(-c3cnc(CO[C@H]4CCC[C@@H]4O)nc3)cc2s1)C1CC(N2CCCC(F)(F)C2)C1 (stereo partly drawn) [b-02-10] | 141 | 3.94 | – |
| O=C(Nc1nc2ccc(-c3cnc(CO[C@H]4CCC[C@@H]4O)nc3)cc2s1)C1CC(N2CCC(F)CC2)C1 (stereo partly drawn) [b-02-11] | 152 | 2.87 | – |
| O=C(Nc1nc2ccc(-c3cnc(CO[C@H]4CCC[C@@H]4O)nc3)cc2s1)C1CC(N2CC(F)(F)C2)C1 (stereo partly drawn) [b-02-12] | 170 | 3.37 | – |
| O=C(Nc1nc2ccc(-c3cnc(CO[C@H]4CCC[C@@H]4O)nc3)cc2s1)C1CC(N2CCC(F)(F)C2)C1 (stereo partly drawn) [b-02-13] | 175 | 3.77 | – |
| CO[C@H]1CCN(C2CC(C(=O)Nc3nc4ccc(-c5cnc(CO[C@H]6CCC[C@@H]6O)nc5)cc4s3)C2)C1 (stereo partly drawn) [b-02-14] | 164 | 2.41 | – |
| CO[C@@H]1CCN(C2CC(C(=O)Nc3nc4ccc(-c5cnc(CO[C@H]6CCC[C@@H]6O)nc5)cc4s3)C2)C1 (stereo partly drawn) [b-02-15] | 157 | 2.25 | – |
| O=C(Nc1nc2ccc(-c3cnc(CO[C@H]4CCC[C@@H]4O)nc3)cc2s1)C1CC(N2CCC[C@@H](F)C2)C1 (stereo partly drawn) [b-02-16] | 107 | 2.01 | – |
| O=C(Nc1nc2ccc(-c3cnc(CO[C@H]4CCC[C@@H]4O)nc3)cc2s1)C1CC(N2CCC[C@H](F)C2)C1 (stereo partly drawn) [b-02-17] | 120 | 1.59 | – |
| CC1(C)CN(C2CC(C(=O)Nc3nc4ccc(-c5cnc(CO[C@H]6CCC[C@@H]6O)nc5)cc4s3)C2)CCO1 (stereo partly drawn) [b-02-18] | 164 | 2.92 | – |
| C[C@@H]1CN(C2CC(C(=O)Nc3nc4ccc(-c5cnc(CO[C@H]6CCC[C@@H]6O)nc5)cc4s3)C2)C[C@H](C)O1 (stereo partly drawn) [b-02-19] | 144 | 2.54 | – |
| CC[C@H]1COCCN1C1CC(C(=O)Nc2nc3ccc(-c4cnc(CO[C@H]5CCC[C@@H]5O)nc4)cc3s2)C1 (stereo partly drawn) [b-02-20] | 78 | 4.28 | – |
| CC[C@@H]1COCCN1C1CC(C(=O)Nc2nc3ccc(-c4cnc(CO[C@H]5CCC[C@@H]5O)nc4)cc3s2)C1 (stereo partly drawn) [b-02-21] | 66 | 2.12 | – |
| CN1CCN(C2CC(C(=O)Nc3nc4ccc(-c5cnc(CO[C@H]6CCC[C@@H]6O)nc5)cc4s3)C2)CC1 (stereo partly drawn) [b-02-22] | 208 | 1.89 | – |
| O=C(Nc1nc2ccc(-c3cnc(CO[C@H]4CCC[C@@H]4O)nc3)cc2s1)C1CC(N2CCN(CC(F)(F)F)CC2)C1 (stereo partly drawn) [b-02-23] | 166 | 2.52 | – |
| O=C(Nc1nc2ccc(-c3cnc(CO[C@H]4CCC[C@@H]4O)nc3)cc2s1)C1CC(N2CCOCC3(CC3)C2)C1 (stereo partly drawn) [b-02-24] | 180 | 1.91 | – |
| COCCN1CCN(C2CC(C(=O)Nc3nc4ccc(-c5cnc(CO[C@H]6CCC[C@@H]6O)nc5)cc4s3)C2)CC1 (stereo partly drawn) [b-02-25] | 199 | 1.98 | – |
| C[C@H]1CCCN1C1CC(C(=O)Nc2nc3ccc(-c4cnc(CO[C@H]5CCC[C@@H]5O)nc4)cc3s2)C1 (stereo partly drawn) [b-02-26] | 126 | 1.75 | – |
| C[C@@H]1CCCN1C1CC(C(=O)Nc2nc3ccc(-c4cnc(CO[C@H]5CCC[C@@H]5O)nc4)cc3s2)C1 (stereo partly drawn) [b-02-27] | 159 | 1.48 | – |
| O=C(Nc1nc2ccc(-c3cnc(CO[C@H]4CCC[C@@H]4O)nc3)cc2s1)C1CC(N2CCN(C3CC3)CC2)C1 (stereo partly drawn) [b-02-28] | 103 | 2.17 | – |
| O=C(Nc1nc2ccc(-c3cnc(CO[C@H]4CCC[C@@H]4O)nc3)cc2s1)C1CC(NC23CC(C2)C3)C1 (stereo partly drawn) [b-02-29] | 124 | 2.43 | – |
| O=C(Nc1nc2ccc(-c3cnc(CO[C@H]4CCC[C@@H]4O)nc3)cc2s1)C1CC(N2CCOC(C3CC3)C2)C1 (stereo partly drawn) [b-02-30] | 137 | 4.12 | – |
| O=C(Nc1nc2ccc(-c3cnc(CO[C@H]4CCC[C@@H]4O)nc3)cc2s1)C1CC(N2C[C@@H]3C[C@H]2CO3)C1 (stereo partly drawn) [b-02-31] | 194 | 2.36 | – |
| CC(C)[C@H]1COCCN1C1CC(C(=O)Nc2nc3ccc(-c4cnc(CO[C@H]5CCC[C@@H]5O)nc4)cc3s2)C1 (stereo partly drawn) [b-02-32] | 41 | 2.37 | – |
| O=C(Nc1nc2ccc(-c3cnc(CO[C@H]4CCC[C@@H]4O)nc3)cc2s1)C1CC(N2CCOCC23CCC3)C1 (stereo partly drawn) [b-02-33] | 51 | 1.63 | – |
| CC(C)[C@@H]1COCCN1C1CC(C(=O)Nc2nc3ccc(-c4cnc(CO[C@H]5CCC[C@@H]5O)nc4)cc3s2)C1 (stereo partly drawn) [b-02-34] | 116 | 2.52 | – |
| O=C(Nc1nc2ccc(-c3cnc(CO[C@H]4CCC[C@@H]4O)nc3)cc2s1)C1CC(N2CCOCC(F)(F)C2)C1 (stereo partly drawn) [b-02-35] | 140 | 2.52 | – |
| O=C(Nc1nc2ccc(-c3cnc(CO[C@H]4CCC[C@@H]4O)nc3)cc2s1)C1CC(NCC(F)F)C1 (stereo partly drawn) [b-02-52] | – | 2.6 | 176 |

Second part, led by results:

| IC50 ([1]; THP-1, 4 h) [nM] | IC50 [2] [nM] | Structure (SMILES) | IC50 ([1]; 4 hours) [nM] |
| --- | --- | --- | --- |
| 145 | 1.82 | CC1COCCCN1C1CC(C(=O)Nc2nc3ccc(-c4cnc(CO[C@H]5CCC[C@@H]5O)nc4)cc3s2)C1 (stereo partly drawn) [b-02-36] | – |
| 94 | 2.22 | O=C(Nc1nc2ccc(-c3cnc(CO[C@H]4CCC[C@@H]4O)nc3)cc2s1)C1CC(N2CCOCC23CC3)C1 (stereo partly drawn) [b-02-37] | – |
| 150 | 2.98 | CC(=O)N1CCN(C2CC(C(=O)Nc3nc4ccc(-c5cnc(CO[C@H]6CCC[C@@H]6O)nc5)cc4s3)C2)CC1 (stereo partly drawn) [b-02-38] | – |
| 182 | 1.9 | COC[C@@H]1CCN(C2CC(C(=O)Nc3nc4ccc(-c5cnc(CO[C@H]6CCC[C@@H]6O)nc5)cc4s3)C2)C1 (stereo partly drawn) [b-02-39] | – |
| 139 | 1.62 | O=C(Nc1nc2ccc(-c3cnc(CO[C@H]4CCC[C@@H]4O)nc3)cc2s1)C1CC(N2CC[C@H](O)C2)C1 (stereo partly drawn) [b-02-40] | – |
| 160 | 2.86 | CN1CCN(C2CC(C(=O)Nc3nc4ccc(-c5cnc(CO[C@H]6CCC[C@@H]6O)nc5)cc4s3)C2)CC(F)(F)C1 (stereo partly drawn) [b-02-41] | – |
| 123 | 1.93 | N#CC12CC(NC3CC(C(=O)Nc4nc5ccc(-c6cnc(CO[C@H]7CCC[C@@H]7O)nc6)cc5s4)C3)(C1)C2 (stereo partly drawn) [b-02-42] | – |
| 123 | 3.1 | O=C(Nc1nc2ccc(-c3cnc(CO[C@H]4CCC[C@@H]4O)nc3)cc2s1)C1CC(N2CCC[C@@H]2C(F)(F)F)C1 (stereo partly drawn) [b-02-43] | – |
| 143 | 3.93 | O=C(Nc1nc2ccc(-c3cnc(CO[C@H]4CCC[C@@H]4O)nc3)cc2s1)C1CC(N2CCC[C@H]2C(F)(F)F)C1 (stereo partly drawn) [b-02-44] | – |
| 171 | 3.55 | CC1CC(F)(F)CN1C1CC(C(=O)Nc2nc3ccc(-c4cnc(CO[C@H]5CCC[C@@H]5O)nc4)cc3s2)C1 (stereo partly drawn) [b-02-46] | – |
| 110 | 1.75 | O=C(Nc1nc2ccc(-c3cnc(CO[C@H]4CCC[C@@H]4O)nc3)cc2s1)C1CC(NC2CC2)C1 (stereo partly drawn) [b-02-47] | – |
| 143 | 2.03 | O=C(Nc1nc2ccc(-c3cnc(CO[C@H]4CCC[C@@H]4O)nc3)cc2s1)C1CC(NC2CCC2)C1 (stereo partly drawn) [b-02-48] | – |
| 119 | 2.52 | CC12CC(NC3CC(C(=O)Nc4nc5ccc(-c6cnc(CO[C@H]7CCC[C@@H]7O)nc6)cc5s4)C3)(C1)C2 (stereo partly drawn) [b-02-49] | – |
| 144 | 1.93 | O=C(Nc1nc2ccc(-c3cnc(CO[C@H]4CCC[C@@H]4O)nc3)cc2s1)C1CC(NC2CCCC2)C1 (stereo partly drawn) [b-02-50] | – |
| 146 | 2.17 | O=C(Nc1nc2ccc(-c3cnc(CO[C@H]4CCC[C@@H]4O)nc3)cc2s1)C1CC(N2CC[C@H](OC(F)F)C2)C1 (stereo partly drawn) [b-02-51] | – |
| 172 | 2.59 | CN(CC(F)F)C1CC(C(=O)Nc2nc3ccc(-c4cnc(CO[C@H]5CCC[C@@H]5O)nc4)cc3s2)C1 (stereo partly drawn) [b-02-53] | – |
